Values of other authors, collected in patent publication US12012625B2, “Method for producing bioactive composition” (Imam Abdulrahman Bin Faisal University, priority 2020, dated 2024).

Cc1cc(=O)c2c(O)c3c(O)cc(=O)c4c3c3c(c(Cl)c(O)c1c23)C(C)(C)C=4O [chlorxanthomycin]
growth inhibition (B. amyloliquefaciens): inhibited the growth
growth inhibition (B. subtilis): inhibited the growth
